# Assay results: patent US10757944B2, “Ozone treatment for elimination of pathogens” (priority 2016, dated 2020)
# Test system: CFUs on cannabis flower
# Assay: Exposure of cannabis flower to 200 ppm ozone, CFU reduction
# Format: cell-based
# Conditions: between about 20 minutes and 90 minutes
structure (smiles),measurement,value
O=[O+][O-] [ozone],reduction of CFUs,"100,000 to 150,000 CFUs per hour"
